Results on 8 compounds are retold here after PubChem BioAssay (NCI).

Where “and” joins values, the source holds several entries; their conditions need not be identical. Equal entries are not always repeated.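 These data come from cells grown in 96-well plates and exposed to compound for 48 hours at five concentrations. GI50 = concentration required for 50% inhibition of growth. Definition used: TGI = concentration required for complete inhibition of growth.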 A value given as a limit tells only on which side of the number the result lay.

Test systems include ACHN renal; CAKI-1 renal; DU-145 prostate; K-562 leukemia; M14 melanoma; MALME-3M melanoma; NCI/ADR-RES ovarian; PC-3 prostate; SF-295 CNS; T-47D breast.
Common to all, as to experiment: NCI anticancer screen, dose series, 48 h

Regarding `COc1ccc(N2CCN(C(=O)c3ccccc3Nc3ccnc(C(F)(F)F)c3)CC2)cc1`, the GI50 with ACHN renal was more than 100 µM; in the assay with CAKI-1 renal, 48.8 µM; in the assay on DU-145 prostate, more than 100 µM; with K-562 leukemia, 59.3 µM; in the assay with M14 melanoma, 87.3 µM; in the assay with MALME-3M melanoma it was more than 100 µM. In addition, the GI50 in the assay with NCI/ADR-RES ovarian is 23.8 µM; with PC-3 prostate, 18.7 µM; with SF-295 CNS, 40.5 µM; with T-47D breast it was 9.23 µM. In addition, the TGI in the assay with ACHN renal, in the assay on CAKI-1 renal, in the assay on DU-145 prostate, with K-562 leukemia, with M14 melanoma and with MALME-3M melanoma was more than 100 µM in each case. The TGI in the assay on NCI/ADR-RES ovarian is more than 100 µM; in the assay with PC-3 prostate it was more than 100 µM; in the assay on SF-295 CNS, more than 100 µM; in the assay on T-47D breast, 96.7 µM.

Turning to `CC(=O)Oc1ccc(OC(C)=O)c2ccccc12`, the GI50 is 6.37 µM in the assay with ACHN renal; 6.79 µM in the assay on CAKI-1 renal; 15.9 µM in the assay on DU-145 prostate; 3.39 µM in the assay with K-562 leukemia; 16.1 µM with M14 melanoma; 14 µM in the assay on MALME-3M melanoma. The GI50 in the assay with NCI/ADR-RES ovarian was 3.27 µM; in the assay on PC-3 prostate, 6.24 µM; in the assay on SF-295 CNS, 20.9 µM; with T-47D breast it was 1.21 µM. For the same compound, the TGI with ACHN renal is 19.2 µM; with CAKI-1 renal it was 23.3 µM; with DU-145 prostate, 29.6 µM; with K-562 leukemia, 22 µM; with M14 melanoma, 30.4 µM; in the assay with MALME-3M melanoma, 33 µM. The TGI was 15.2 µM in the assay on NCI/ADR-RES ovarian, 25.6 µM in the assay with PC-3 prostate, more than 100 µM in the assay with SF-295 CNS and 3.16 µM in the assay on T-47D breast.

`COc1ccc(/C=C/c2c(C(=O)/C=C/c3ccc(Cl)cc3)c(C)nc3ccccc23)cc1`: the GI50 in the assay on ACHN renal was 1.55 µM; in the assay with CAKI-1 renal, 1.14 µM; in the assay on DU-145 prostate, 1.69 µM; in the assay with K-562 leukemia, 2.19 µM; in the assay with M14 melanoma it was 1.83 µM; with MALME-3M melanoma it was 1.69 µM. Further, the GI50 is 2.11 µM in the assay with NCI/ADR-RES ovarian, 1.96 µM in the assay on PC-3 prostate, 1.72 µM in the assay with SF-295 CNS and 1.7 µM with T-47D breast. Also, the TGI with ACHN renal was 2.97 µM; in the assay on CAKI-1 renal, 2.62 µM; in the assay with DU-145 prostate, 3.25 µM; with K-562 leukemia, more than 100 µM; in the assay on M14 melanoma, 4.15 µM; in the assay on MALME-3M melanoma it was 3.21 µM. For the same compound, the TGI was found to be 5.61 µM in the assay on NCI/ADR-RES ovarian, 5.89 µM with PC-3 prostate, 3.61 µM with SF-295 CNS and 5.72 µM in the assay on T-47D breast.

On to `C/C(=C\c1ccc(Cl)cc1)C(C)(C)C(=O)O`, for which the TGI in the assay with ACHN renal, in the assay with CAKI-1 renal, in the assay with DU-145 prostate, with K-562 leukemia, in the assay with M14 melanoma and in the assay with MALME-3M melanoma was more than 100 µM each time. In addition, the TGI in the assay with NCI/ADR-RES ovarian, with PC-3 prostate, in the assay on SF-295 CNS and in the assay on T-47D breast was more than 100 µM throughout.

On to `CC1(C)N=C(N)N=C(N)N1c1cccc(C#N)c1`, for which the GI50 in the assay on ACHN renal was 4.09 µM; in the assay with CAKI-1 renal, 2.45 µM; in the assay on DU-145 prostate, 6.53 µM; with K-562 leukemia it was 0.293 µM; in the assay with M14 melanoma, 0.696 µM; in the assay on MALME-3M melanoma, 16.7 µM. Besides, the GI50 is 75.9 µM in the assay with NCI/ADR-RES ovarian, 2.66 µM in the assay on PC-3 prostate, 2.05 µM in the assay with SF-295 CNS and more than 100 µM in the assay on T-47D breast. The TGI with ACHN renal, with CAKI-1 renal, in the assay with DU-145 prostate, in the assay with K-562 leukemia, in the assay with M14 melanoma and with MALME-3M melanoma was more than 100 µM throughout. For the same compound, the TGI with NCI/ADR-RES ovarian is more than 100 µM; in the assay with PC-3 prostate, more than 100 µM; in the assay on SF-295 CNS it was 24.1 µM; in the assay with T-47D breast, more than 100 µM.

Take `COc1ccc(-c2ccc3c(NC(=O)C4CC4)n[nH]c3n2)cc1`: the GI50 in the assay with ACHN renal, in the assay with CAKI-1 renal, in the assay on DU-145 prostate, with K-562 leukemia, with M14 melanoma and with MALME-3M melanoma was more than 25 µM in each case. The GI50 in the assay with NCI/ADR-RES ovarian, in the assay on PC-3 prostate, in the assay on SF-295 CNS and in the assay with T-47D breast was more than 25 µM in each case. For the same compound, the TGI with ACHN renal, with CAKI-1 renal, in the assay on DU-145 prostate, in the assay on K-562 leukemia, in the assay on M14 melanoma and in the assay on MALME-3M melanoma was more than 25 µM in each case. Also, the TGI in the assay with NCI/ADR-RES ovarian, in the assay with PC-3 prostate, with SF-295 CNS and in the assay on T-47D breast was more than 25 µM in each case.

In the case of `Nc1[nH]c(=O)ncc1F`, the TGI in the assay with ACHN renal, in the assay with CAKI-1 renal, with DU-145 prostate, in the assay with K-562 leukemia, with M14 melanoma and in the assay on MALME-3M melanoma was more than 100 µM in each case. In addition, the TGI in the assay with NCI/ADR-RES ovarian, in the assay on PC-3 prostate, in the assay with SF-295 CNS and with T-47D breast was more than 100 µM throughout.

In the case of `C[C@]12O[C@H](C[C@]1(O)CO)n1c3ccccc3c3c4c(c5c6ccccc6n2c5c31)CNC4=O`, the GI50 in the assay with ACHN renal is 0.0222 µM and 0.0168 µM; in the assay on CAKI-1 renal, 0.00582 µM and < 0.0169 µM; in the assay with DU-145 prostate, 0.0881 µM and 0.11 µM; in the assay with M14 melanoma, 0.0159 µM and 0.0297 µM; in the assay on MALME-3M melanoma, 0.0324 µM and 0.0298 µM; with NCI/ADR-RES ovarian it was 0.87 µM and 1.37 µM. Moreover, the GI50 in the assay with PC-3 prostate is 0.0846 µM and 0.133 µM; in the assay on SF-295 CNS it was 0.171 µM and 0.101 µM; in the assay on T-47D breast it was 0.0791 µM and 0.337 µM. Besides, the TGI in the assay on ACHN renal was > 6.5 µM and 3.13 µM; with DU-145 prostate, > 10 µM and 10.2 µM; with K-562 leukemia, more than 100 µM; in the assay with M14 melanoma, 0.492 µM and 1.97 µM; in the assay on MALME-3M melanoma it was 1.35 µM and 1.27 µM; with NCI/ADR-RES ovarian, 5.15 µM and 7.26 µM. The TGI is > 5.89 µM and 3.9 µM in the assay with PC-3 prostate; 2.45 µM and 2.02 µM in the assay on SF-295 CNS; 1.55 µM and 2.16 µM with T-47D breast.
